The target in series [1] is T1, HDAC8 (Homo sapiens, UniProt Q9BY41).
T1 construct: purchased Eurofins (contracted assay service)
T1 sequence (Q9BY41 1-377): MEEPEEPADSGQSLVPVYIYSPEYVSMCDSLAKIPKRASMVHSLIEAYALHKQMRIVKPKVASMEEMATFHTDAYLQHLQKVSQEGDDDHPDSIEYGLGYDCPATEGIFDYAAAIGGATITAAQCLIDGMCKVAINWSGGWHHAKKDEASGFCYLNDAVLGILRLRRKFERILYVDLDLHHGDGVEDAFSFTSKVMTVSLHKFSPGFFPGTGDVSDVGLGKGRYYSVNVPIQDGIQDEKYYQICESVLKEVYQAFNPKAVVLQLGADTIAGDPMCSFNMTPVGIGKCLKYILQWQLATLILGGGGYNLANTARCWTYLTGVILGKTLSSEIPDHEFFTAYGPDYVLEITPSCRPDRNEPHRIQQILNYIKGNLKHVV
Put plainly: HDAC assay (Eurofins). The series is classed as biochemical.

Series [2] can be described thus: Kinetic solubility. The series is classed as physicochemical. The conditions noted are these: PBS buffer, aqueous buffer, kinetic from dmso stock, pH 7.4, PBS. How it is done: This study was conducted at Wuxi (http://www.wuxi.com/). Stock solutions of test compounds (10 mM; 100% DMSO) and 490 μL of PBS buffer at pH = 7.4 were added in the lower chamber of Whatman’s Mini-Uniprep vials. After vortex mixing for ≥2 min, the vials were shaken at 800 rpm for 24 h and finally centrifuged at 1520 g for 20 min. The concentration of the filtrate was quantified by HPLC (calibration curve from 1.5624 μM to 200 μM). Amiodarone hydrochloride, carbamazepine and chloramphenicol were used as controls.

For series [3], the system named is HL-60. The series can be described thus: CUT&RUN of BRD4, H3K27Ac and H3K9Ac. The series is classed as cell-based, human. The conditions noted are these: HL-60, 12 h. As to the method:
CUT&RUN was performed with the kit CUTANA ChIC/CUT&RUN (Epicypher, 14-1048) following the manufacturer’s instructions. Briefly, 0.5 million of HL-60 cells were harvested and resuspended in 100ul wash buffer [20 mM HEPES pH 7.5, 150 mM NaCl, 0.5 mM Spermidine, supplemented with Protease Inhibitor EDTA-Free tablet (Roche 11836170001)]. Activated Concanavalin A was incubated with cells at room temperature for 10 min to let the cells bind to the beads. For each target protein factor, 0.5 μg of BRD4 CUTANA CUT&RUN antibody (Cat No 13-2003, Epicypher), Acetyl-Histone H3 (Lys 9) (C5B11) rabbit monoclonal antibody diluted 1:50 (Cat No 9649 T, Cell Signaling) or Acetyl-Histone H3 (Lys 27) (D5E4) XP rabbit monoclonal antibody diluted 1:100 (Cat No 8173T, Cell Signaling) was added to each sample and incubated in the antibody buffer (wash buffer +0.01% Digitonin and 2 mM EDTA) overnight at 4 °C. Isotype control IgG was used as a negative control. The beads were then washed twice with digitonin buffer [wash buffer +0.01% Digitonin] and 2.5 μL pAG-MNase was added to each sample. After ten minutes of incubation at room temperature, excessive pAG-MNase was washed out by a two-time digitonin buffer wash. Then targeted chromatin was digested and released from cells by 2 h of incubation with the presence of 2 mM CaCl2 at 4 °C. After incubation with stop buffer [340 mM NaCl, 20 mM EDTA, 4 mM EGTA, 50 μg/mL RNase A, 50 μg/mL Glycogen] for 10 min at 37 °C the supernatant containing CUT&RUN-enriched DNA was purified using the CUTANA DNA Purification kit (Epicypher). Finally, Illumina sequencing libraries were prepared from 6 ng of purified CUT&RUN DNA using NEBNext UltraTM II DNA Library Prep Kit for Illumina, following the manufacturer’s instructions. For BRD4, some modifications were added following the protocol of Nan Liu (Harvard University; 10.17504/protocols.io.wvgfe3w). Libraries were sequenced using NEXTseq500 (Illumina).
The Cut&Run samples were analyzed using the CUT&RUN tools pipeline with default settings and no filtering for 120 bp fragments. Peak calling was performed on deduplicated reads with macs2 version 2.2.6 using the respective IgG samples as control, narrow peak calling and paired-end settings, and a threshold of q = 0.01.
Specifically, 12 chromatin states, based on the combination of 6 histone marks, for 38 AML samples were used[59]. The vast majority of the regions could be entirely annotated to a single chromatin state while some could be entirely annotated to a single chromatin state after the replacement of consecutive chromatin states with similar characteristics with one of them (i.e combination of Transcription Transition / Transcription Elongation / Weak Transcription to Transcription Transition or combination of Heterochromatin; Represesed/ Heterochromatin; Low Signal to Heterochromatin; Repressed etc). The regions that couldn’t be entirely annotated to a single chromatin state or simplified chromatin state were removed. […] We then calculated the percentage of each chromatin state taking into account the width of the regions. As background, we used all the regions of each AML sample and we calculated the percentage of the chromatin states similarly. Finally, we calculated the fold change of each chromatin state as a percentage in the sample to a percentage in the background AML sample.

In brackets after ≈: the same amount, converted by molar mass.

Turning to `COc1cc2nc(-c3cc(C)oc3C)cc(NCC3CCN(c4ncc(C(=O)NO)cn4)CC3)c2cc1OC` [CM-1758, 2-[4-[[[2-(2,5-dimethyl-3-furyl)-6,7-dimethoxy-4-quinolyl]amino]methyl] -1-piperidyl]pyrimidine-5-carbohydroxamic acid], in series [1], inhibition was half-maximal at 200 nM (IC50) and the inhibition – broadly, the share of the control response that was lost under treatment – at 10 µM turned out to be 100%. For the same molecule, in series [2], the solubility (commonly the dissolved amount per volume that the medium holds) at 24 h was above 144 µg/mL.
Regarding `COc1cc2nc(-c3ccc(C)o3)cc(NCC3CCN(c4ncc(C(=O)NO)cn4)CC3)c2cc1OC` [CM-444, 2-[4-[[[6,7-dimethoxy-2-(5-methyl-2-furyl)-4-quinolyl]amino]methyl]-1-piperidyl]pyrimidine-5-carbohydroxamic acid], in series [1], the IC50 – broadly, the concentration needed to halve the response being measured – turned out to be 83 nM and the inhibition at 10 µM was 100%. Besides, in series [3], the “BRD4 CUT&RUN peaks” value amounted to 19570, the “H3K9Ac CUT&RUN peaks” value worked out at 7568 and the “H3K27Ac CUT&RUN peaks” value is on record as 48991. The solubility at 24 h in series [2] stood at 118 µg/mL (≈ 227 µM).
On to `Cc1[nH]c2ccccc2c1CCNCc1ccc(/C=C/C(=O)NO)cc1` [Panobinostat, reference compound], for which, in series [3], the “BRD4 CUT&RUN peaks” value was determined as 16030, the “H3K9Ac CUT&RUN peaks” value worked out at 32775 and the “H3K27Ac CUT&RUN peaks” value worked out at 26959.

For the origin of these results see PMC11219871, “Epigenetic-based differentiation therapy for Acute Myeloid Leukemia” (Nature Communications, 2024).
